Measured values from US11628166B2, “Therapeutic uses of compounds having combined sert, 5-HT3 and 5-HT1a activity” (H. Lundbeck A/S, priority 2007, dated 2023).
pIC50: −log10 of the molar value.

What was measured:
Solubility in water = type: physicochemical
[1] = Hygroscopicity / water absorption on exposure to humidity; type: physicochemical
[2] = target: Human serotonin transporter (Homo sapiens, UniProt P31645); assay: Human serotonin transporter, blockade of 5-HT uptake; type: biochemical
[3] = Clinical trial, HAM-D items 4, 5 and 6 (insomnia early, middle, late); type: in vivo, human; conditions: 5 and 10 mg daily vs placebo, 6 weeks, approx. 100 patients per arm
Experimental: (§1) The HAM-D scale may be used to assess the severity of depression in patients by means of a 24 items questionnaire. Item 4, 5 and 6 of the scale relate to how the patients sleep, i.e., is it easy to fall asleep (insomnia Early), does the patient wake up during the night (Insomnia Middle), and does the patient wake up early in the morning (Insomnia Late). The compound was tested at 5 and 10 mg daily against placebo with approximately 100 patients per arm. […] It is well-known that sleep disturbances are a general adverse effect of most antidepressants. In particular SSRI's and compounds which inhibit the noradrenaline transporter are reported to give rise to problems with sleep initiation and maintenance and problems with insomnia are also often reported [Int.Clin.Psychpharm., 21 (suppl 1), S25-S29, 2006]. Others report that such compounds give rise to suppressed REM sleep, increased sleep latency, less efficient sleep, increase in nocturnal awakenings, and fragmentation of sleep [Hum.Psychopharm.Clin.Exp., 20, 533-559, 2005].

[4] = Clinical trial, sexually related adverse effects reported by patients; type: in vivo, human
Experimental: as §1
The above mentioned clinical trial also captured sexual adverse effects reported by the patients.

[5] = Mouse intradermal formalin test; type: in vivo; conditions: ~20-30 minutes after formalin
Experimental: In this model, mice receive an injection of formalin (4.5%, 20 μl) into the left hind paw. The irritation caused by the formalin injection elicits a characteristic biphasic behavioural response, as quantified by the amount of time spent licking the injured paw.
The first phase (˜0-10 minutes) represents direct chemical irritation and nociception, whereas the second phase (˜20-30 minutes) is thought to represent pain of […] origin. The two phases are separated by a quiescent period in which behaviour returns to normal. The effectiveness of test compounds to reduce the painful stimuli is assessed by counting the amount of time spent licking the injured paw in the two phases.

[6] = Microdialysis, extracellular acetylcholine levels in brain of freely moving rats; type: in vivo, rat; conditions: 2.5-10 mg/kg s.c.
Experimental: The animals were administered 1-[2-(2,4-dimethylphenylsulfanyl)phenyl]piperazine, HBr salt.
Male Sprague-Dawley rats, initially weighing 275-300 g, were used. The animals were housed under a 12-hr light/dark cycle under controlled conditions for regular in-door temperature (21±2° C.) and humidity (55±5%) with food and tap water available ad libitum.
Rats were anaesthetised with hypnorm/dormicum (2 ml/kg) and intracerebral guide cannulas (CMA/12) were stereotaxically implanted into the brain, aiming at positioning the dialysis probe tip in the ventral hippocampus (co-ordinates: 5.6 mm posterior to bregma, lateral −5.0 mm, 7.0 mm ventral to dura) or in the prefrontal cortex (co-ordinates: 3.2 mm anterior to bregma; lateral, 0.8 mm; 4.0 mm ventral to dura). […] The body temperature of the animals was monitored by rectal probe and maintained at 37° C. […]
The compound dissolved in 10% HPbetaCD and injected subcutaneously (2.5-10 mg/kg). Doses are expressed as mg salt/kg body weight. […]
Concentration of acetylcholine (ACh) in the dialysates was analysed by means of HPLC with electrochemical detection using a mobile phase consisting of 100 mM disodium hydrogenphosphate, 2.0 mM octane sulfonic acid, 0.5 mM tetramethylammonium chloride and 0.005% MB (ESA), pH 8.0. […] The latter was detected electrochemical by using a platinum electrode (Analytical cell: ESA, model 5040). […]

[7] = Contextual fear conditioning in rats; type: in vivo, rat; conditions: for time spent freezing during the retention test: test 24 h after acquisition
From the text: The compound administered in the present experiment was 1-[2-(2,4-dimethylphenyl-sulfanyl)phenyl]piperazine HBr salt.
We have studied the effect of the compound on acquisition, consolidation and recall of contextual fear conditioning in rats. In the fear conditioning paradigm animals learn to associate a neutral environment (context, the training chamber, CS) with an aversive experience (an electrical foot-shock, US). During re-exposure to the training chamber, animals express a freezing behaviour, which is taken as a direct measure of the fear-related memory [Pavlov J. Biol. Sci., 15, 177-182, 1980]. […] Neurosci., 106, 274-285, 1992].
Adult male Sprague-Dawley rats (weighing 250-300 g at time of training) from Charles River Laboratories, housed two per cage under a 12 h light/dark cycle, were used. Food and water were available ad libitum. Rats were used 1 week after arrival. The compound was dissolved in 10% HPbetaCD and injected subcutaneously. The drug was administered in a volume of 2.5 ml/kg.
Training and testing were conducted in a soundproof chamber (30×20×40 cm) housed in an isolated room and connected to a ventilation system. Illumination was provided by a white light (60 Watt). The floor of the chamber consisted of a metal grid attached to an electric shock generator. Prior to training and testing, the chamber was cleaned with a 70% ethanol solution. A video camera allowed for behavioral observations and recording of the training session for off-line analysis.
During the acquisition animals were allowed to freely explore the novel environment for a 1 min habituation period, which co-terminated with one inescapable foot-shock (unconditioned stimulus, US) through the electrifiable grid floor. […] Animals remained in the conditioning chamber for another 60 s after the US. Freezing behaviour was scored during the first 58 s (pre-shock acquisition; experimenter blinded to groups) to determine baseline-freezing responses to the context. At the end of the acquisition animals were gently removed and placed into their home cages. After 24 h the same animals were reintroduced into the training context (fear conditioning chamber) and a 2 min retention test was performed. During this period no foot shocks were applied. Freezing behaviour was scored during the whole test period with the experimenter blinded to groups and presented as percent of total test period.

Chain of Human serotonin transporter (P31645 whole entry): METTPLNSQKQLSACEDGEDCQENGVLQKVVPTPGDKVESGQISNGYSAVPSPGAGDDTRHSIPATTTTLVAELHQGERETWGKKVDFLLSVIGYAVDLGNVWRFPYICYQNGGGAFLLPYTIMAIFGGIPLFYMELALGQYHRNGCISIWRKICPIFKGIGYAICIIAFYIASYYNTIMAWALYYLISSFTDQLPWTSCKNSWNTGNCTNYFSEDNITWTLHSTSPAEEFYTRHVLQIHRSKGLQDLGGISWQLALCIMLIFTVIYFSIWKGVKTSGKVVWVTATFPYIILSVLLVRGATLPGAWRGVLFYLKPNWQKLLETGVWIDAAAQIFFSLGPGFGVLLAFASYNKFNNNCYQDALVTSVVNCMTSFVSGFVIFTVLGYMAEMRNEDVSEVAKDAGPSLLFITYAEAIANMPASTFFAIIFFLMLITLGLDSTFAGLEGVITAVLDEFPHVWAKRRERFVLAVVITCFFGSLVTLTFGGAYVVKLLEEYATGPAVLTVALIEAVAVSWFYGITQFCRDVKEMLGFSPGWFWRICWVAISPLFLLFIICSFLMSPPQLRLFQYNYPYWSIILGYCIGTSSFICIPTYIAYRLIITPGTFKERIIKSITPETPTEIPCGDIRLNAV

SMILES: Br.Cc1ccc(Sc2ccccc2N2CCNCC2)c(C)c1 [beta form of the hydrobromide]
- solubility in water (Solubility in water): 1.2 mg/mL

SMILES: Br.Cc1ccc(Sc2ccccc2N2CCNCC2)c(C)c1 [hemi hydrate of the hydrobromide]
- water content ([1]; room temperature and 95% RH): about 3.7%

SMILES: Br.Cc1ccc(Sc2ccccc2N2CCNCC2)c(C)c1 [alpha form of the hydrobromide]
- solubility in water (Solubility in water): 2 mg/mL

SMILES: Cc1ccc(Sc2ccccc2N2CCNCC2)c(C)c1 [compound I, 1-[2-(2,4-dimethylphenyl-sulfanyl)-phenyl]piperazine]
- pIC50 [2]: 8.27
- change in sleep pattern, HAM-D items 4-6 [3]: large and dose dependent improvement of the sleep pattern
- number of patients reporting Anorgasmia ([4]; 5 mg daily): 0
- number of patients reporting Ejaculation delayed ([4]; 5 mg daily): 0
- number of patients reporting Erectile dysfunction ([4]; 5 mg daily): 0
- number of patients reporting Libido decreased ([4]; 5 mg daily): 1
- number of patients reporting Loss of libido ([4]; 5 mg daily): 1
- number of patients reporting Orgasm abnormal ([4]; 5 mg daily): 0
- number of patients reporting Orgasmic sensation decreased ([4]; 5 mg daily): 0
- number of patients reporting Anorgasmia ([4]; 10 mg daily): 0
- number of patients reporting Ejaculation delayed ([4]; 10 mg daily): 0
- number of patients reporting Erectile dysfunction ([4]; 10 mg daily): 0
- number of patients reporting Libido decreased ([4]; 10 mg daily): 1
- number of patients reporting Loss of libido ([4]; 10 mg daily): 0
- number of patients reporting Orgasm abnormal ([4]; 10 mg daily): 0
- number of patients reporting Orgasmic sensation decreased ([4]; 10 mg daily): 0
- second phase pain scores (time spent licking the paw) [5]: significant reduction

SMILES: Br.Cc1ccc(Sc2ccccc2N2CCNCC2)c(C)c1 [1-[2-(2,4-dimethylphenylsulfanyl)phenyl]piperazine HBr salt]
- extra-cellular levels of ACh in prefrontal cortex ([6]; rat prefrontal cortex): significantly increased
- extra-cellular levels of ACh in ventral hippocampus ([6]; rat ventral hippocampus): significantly increased
- time spent freezing during the retention test ([7]; 5 mg/kg s.c. 1 h prior to acquisition, n=6): 39.24±13.76%
- freezing behaviour during the memory test ([7]; 5 mg/kg s.c. 1 h prior to the retention test, n=9, p<0.05): 12.86±3.57%
- time spent freezing during the retention test ([7]; 5 mg/kg s.c. after the acquisition session, n=8, p<0.05): 45.58±4.50%
- time spent freezing during the retention test ([7]; 10 mg/kg s.c. 1 h prior to acquisition, n=10, p<0.01): 52.15±5.68%
- baseline freezing behaviour before the foot shock ([7]; 1, 5 and 10 mg/kg s.c., 1 h prior to acquisition): does not affect baseline freezing behaviour

SMILES: Br.Cc1ccc(Sc2ccccc2N2CCNCC2)c(C)c1 [gamma form of the hydrobromide]
- water absorbed ([1]; 30% RH at room temperature): about 2%

SMILES: Cc1ccc(Sc2ccccc2N2CCNCC2)c(C)c1 [Crystalline base, 1-[2-(2,4-dimethylphenylsulfanyl)-phenyl]piperazine]
- hygroscopicity [1]: not hygroscopic
